Source: publication PMC11364019, “Capturing the blue-light activated state of the Phot-LOV1 domain from Chlamydomonas reinhardtii using time-resolved serial synchrotron crystallography” (IUCrJ, 2024)

Target: T1, CrPhotLOV1 (Chlamydomonas reinhardtii, UniProt Q8LPD9)
T1 construct: gene PHOT; LOV1 domain, residues 16-133; N-terminal His-tag (pET16b) removed by limited trypsin proteolysis; expressed in E. coli BL21 DE3
T1 sequence (Q8LPD9 16-133): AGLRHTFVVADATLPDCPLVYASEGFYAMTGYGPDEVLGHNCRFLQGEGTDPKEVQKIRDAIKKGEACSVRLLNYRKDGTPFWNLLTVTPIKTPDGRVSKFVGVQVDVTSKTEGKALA
Assay: X-ray crystallography (cryo, serial and time-resolved serial synchrotron); FTIR difference spectroscopy on crystals
Type: binding
Conditions: dark state: non-covalent; after blue light: covalent thioether adduct of Cys57 S-gamma to FMN C4a; crystals at pH 6.5; 100 K and room temperature

## Cc1cc2nc3c(=O)[nH]c(=O)nc-3n(C[C@H](O)[C@H](O)[C@H](O)COP(=O)(O)O)c2cc1C [FMN, flavin mononucleotide]
  X-ray crystallography (cryo, serial and time-resolved serial synchrotron); FTIR: light-induced formation of the thioether covalent adduct
